We go through six compounds from patent publication US10100079B2, “Progesterone-cationic lipid hybrid as anticancer agent and the process of synthesis thereof” (Council of Scientific & Industrial Research, priority 2016, dated 2018).

One data set has as its system T47D. Kind of data set: MTT cytotoxicity assay, T47D. The following applies: Homo sapiens, MTT, 48 h continuous treatment, read-out: IC50 T47D. It is filed as cell-based. The method, then: (§1) All cells were grown into mycoplasma free condition. […] All cells were grown up to 75-85% confluency after which cells were trypsinized, counted and seeded, in 96-well plates for cell viability studies, 6-well plates for apoptosis studies, 60 mm dish for cell cycle studies and in 25 cm^2 or 75 cm^2 tissue culture flasks for Western blot studies. The primary stock of the cationic progesterone molecules were made in cell culture grade DMSO and from that secondary stock was prepared by serial dilution with cell culture grade DMSO. The final working concentrations were prepared by diluting the secondary stock in cell culture media keeping the DMSO concentration in working solution below 0.2% with respect to cell culture medium. […] For this assay, 12-18 h before treatment cells were plated in 96-well plate at 5000 cells/well density. […] After completion of the treatment, 10 μL of MTT solution (5 mg/mL) was added in each well and incubated for 4 h. Then the media was removed carefully, and the reduced MTT was dissolved in 1:1 (v/v) DMSO/Methanol and absorbance was measured using multimode reader (Synergy H1, BioTek). Results were represented as percentage of viability={[A550(treated cells)−background]/[A550(untreated cells)−background]}×100. The result was summarized and provided as IC50 table in Table 1.

Another data set concerns MCF7. Description: MTT cytotoxicity assay, MCF7. Format: cell-based. The following applies: Homo sapiens, MCF7; MTT, 48 h continuous treatment; read-out: IC50 MCF7. Here is the method:
as §1

Another data set deals with OVCAR-3. Description: MTT cytotoxicity assay, OVCAR-3. To be noted: Homo sapiens, OVCAR-3; MTT, 48 h continuous treatment; read-out: IC50 OVCAR-3. It is filed as cell-based. Here is the method:
as §1

The subject of another data set is B16F10. Description: MTT cytotoxicity assay, B16F10. It is filed as cell-based, murine. The following applies: Mus musculus, B16-F10; MTT, 48 h continuous treatment; read-out: IC50 B16F10. Here is the method: as §1
The test system of a further data set is MDA-MB-231. Kind of data set: MTT cytotoxicity assay, MDA-MB-231. It is filed as cell-based, human. The following applies: Homo sapiens, MDA-MB-231; MTT, 48 h continuous treatment; read-out: IC50 MDA-MB-231. The method, then:
as §1

For a further data set, the system named is NIH-3T3. Description: MTT cytotoxicity assay, NIH-3T3. The following applies: Mus musculus, NIH3T3; MTT, 48 h continuous treatment, non-cancer cell; read-out: IC50 NIH-3T3. Format: cell-based, murine. The method, then:
as §1

The next data set has as its system CHO. Description: MTT cytotoxicity assay, CHO. Format: cell-based, Chinese hamster. The following applies: Cricetulus griseus, MTT, 48 h continuous treatment, non-cancer cell, read-out: IC50 CHO. Here is the method:
as §1

The next data set has as its system COS-1. Kind of data set: MTT cytotoxicity assay, COS-1. It is filed as cell-based. To be noted: Chlorocebus aethiops, COS-1; MTT, 48 h continuous treatment, non-cancer cell; read-out: IC50 COS-1. The method, then: as §1
In data set [1] the test system is cancer cells T47D, OVCAR-3, MDA-MB-231, MCF-7 and B16F10. Kind of data set: MTT viability, all tested cancer cells (combination treatment study, FIG. 1A). It is filed as cell-based. The following applies: 48 h, 2.5 μM-40 μM. Here is the method:
FIG. 1A: The viability studies of cancer cells T47D, OVCAR-3, MDA-MB-231, MCF-7 and B16F10 after 48 h of continuous treatment with compound 1 (10 μM), 10C [cationic lipid control molecule not containing progesterone moiety]
(§2) Cytotoxicity assay of the different compounds were carried out by using 3-(4,5-dimethylthiazol-2-yl)-2,5-diphenyltetrazolium bromide (MTT). For this assay, 12-18 h before treatment cells were plated in 96-well plate at 5000 cells/well density. After incubation cells were treated continuously for 48 h with respective compounds at different concentration (2.5 μM-40 μM). After completion of the treatment, 10 μL of MTT solution (5 mg/mL) was added in each well and incubated for 4 h. Then the media was removed carefully, and the reduced MTT was dissolved in 1:1 (v/v) DMSO/Methanol and absorbance was measured using multimode reader (Synergy H1, BioTek). Results were represented as percentage of viability={[A550(treated cells)−background]/[A550(untreated cells)−background]}×100. The result was summarized and provided as IC50 table in Table 1.
(§3) For combination treatment effect, cells were plated in 96 well plates at 5000 cells/well. […] Following 48 h of treatment cell viability was measured following above mentioned MTT study.

In data set [2] the test system is non-cancer cells CHO, COS-1 and NIH-3T3. Kind of data set: MTT viability, tested non-cancer cells (combination treatment study, FIG. 1B). It is filed as cell-based. To be noted: 48 h, 2.5 μM-40 μM. The method, then: FIG. 1B: The viability studies of non-cancer cells CHO, COS-1 and NIIH-3T3 after 48 h of continuous treatment with compound 1 (10 μM), 10C [cationic lipid control molecule not containing progesterone moiety]
as §2, §3

`CCCCCC[N+](C)(CCCCCC)CCNC(=O)CCC(=O)O[C@@H](C)[C@H]1CCC2C3CCC4=CC(=O)CC[C@]4(C)C3CC[C@@]21C` (stereo partly drawn) [Compound 6a, N-(2-(4-((1S)-1-((10R,13S,17S)-10,13-dimethyl-3-oxo-2,3,6,7,8,9,10,11,12,13,14,15,16,17-tetradecahydro-1H-cyclopenta[a]phenanthren-17-yl)ethoxy)-4-oxobutanamido)ethyl)-N-hexyl-N-methylhexan-1-aminium chloride]: the IC50 is 7.43 ± 0.76 µM in the data set on T47D; > 15 µM in the data set on MCF7; 13.9 ± 0.53 µM in the data set with OVCAR-3; > 15 µM with B16F10; 5.78 ± 0.38 µM in the data set on MDA-MB-231; > 20 µM in the data set on NIH-3T3. Moreover, the results for the IC50 in the data set with CHO and in the data set on COS-1 were 17.9 ± 0.56 µM and > 20 µM, respectively.
For `CCCCCCCC[N+](C)(CCCCCCCC)CCNC(=O)CCC(=O)O[C@@H](C)[C@H]1CCC2C3CCC4=CC(=O)CC[C@]4(C)C3CC[C@@]21C.[Cl-]` (stereo partly drawn) [Compound 6b, N-(2-(4-((1S)-1-((10R,13S,17S)-10,13-dimethyl-3-oxo-2,3,6,7,8,9,10,11,12,13,14,15,16,17-tetradecahydro-1H-cyclopenta[a]phenanthren-17-yl)ethoxy)-4-oxobutanamido)ethyl)-N-methyl-N-octyloctan-1-aminium chloride], the IC50 in the data set with T47D was 4.07 ± 0.23 µM; with MCF7 it was 8.28 ± 0.12 µM; in the data set with OVCAR-3, 11.9 ± 0.45 µM; in the data set on B16F10 it was 9.95 ± 0.32 µM; with MDA-MB-231, 8.56 ± 0.52 µM; with NIH-3T3, > 20 µM. For the same compound, the figures for the IC50 in the data set with CHO and in the data set with COS-1 were 17 ± 0.41 µM and > 20 µM, respectively. Moreover, in data set [1], the “cell killing in all tested cancer cells” value is given as “significant amount of cell killing”. Also, the “toxicity towards tested non-cancer cells” value in [2] is recorded as “largely non-toxic”.
Take `CCCCCCCCCCCC[N+](C)(CCCCCCCCCCCC)CCNC(=O)CCC(=O)O[C@@H](C)[C@H]1CCC2C3CCC4=CC(=O)CC[C@]4(C)C3CC[C@@]21C.[Cl-]` (stereo partly drawn) [Compound 6d, N-(2-(4-((1S)-1-((10R,13S,17S)-10,13-dimethyl-3-oxo-2,3,6,7,8,9,10,11,12,13,14,15,16,17-tetradecahydro-1H-cyclopenta[a]phenanthren-17-yl)ethoxy)-4-oxobutanamido)ethyl)-N-dodecyl-N-methyldodecan-1-aminium chloride]: the IC50 in the data set with T47D was 12.8 ± 0.43 µM; in the data set with MCF7, 7.04 ± 0.28 µM; in the data set on OVCAR-3, 6.83 ± 0.13 µM; in the data set with B16F10, 9.54 ± 0.18 µM; in the data set with MDA-MB-231, 6.36 ± 0.19 µM; with NIH-3T3, > 20 µM. The IC50 in the data set on CHO is 17.5 ± 0.18 µM; with COS-1 it was > 20 µM. The “cell killing in all tested cancer cells” value in [1] is recorded as “significant amount of cell killing”. Moreover, the “toxicity towards tested non-cancer cells” value in data set [2] is recorded as “largely non-toxic”.
With `CCCCCCCCCCCCCC[N+](C)(CCCCCCCCCCCCCC)CCNC(=O)CCC(=O)O[C@@H](C)[C@H]1CCC2C3CCC4=CC(=O)CC[C@]4(C)C3CC[C@@]21C` (stereo partly drawn) [Compound 6e, N-(2-(4-((1S)-1-((10R,13S,17S)-10,13-dimethyl-3-oxo-2,3,6,7,8,9,10,11,12,13,14,15,16,17-tetradecahydro-1H-cyclopenta[a]phenanthren-17-yl)ethoxy)-4-oxobutanamido)ethyl)-N-methyl-N-tetradecyltetradecan-1-aminium chloride], the concentration for half-maximal inhibition (IC50) was > 15 µM in the data set with T47D; > 15 µM with MCF7; > 15 µM in the data set on OVCAR-3; > 15 µM with B16F10; > 15 µM with MDA-MB-231; > 20 µM in the data set with NIH-3T3. The IC50 in the data set on CHO is > 15 µM; in the data set with COS-1 it was > 20 µM.
On to `CCCCCCCCCCCCCCCC[N+](C)(CCCCCCCCCCCCCCCC)CCNC(=O)CCC(=O)O[C@@H](C)[C@H]1CCC2C3CCC4=CC(=O)CC[C@]4(C)C3CC[C@@]21C` (stereo partly drawn) [Compound 6f, N-(2-(4-((1S)-1-((10R,13S,17S)-10,13-dimethyl-3-oxo-2,3,6,7,8,9,10,11,12,13,14,15,16,17-tetradecahydro-1H-cyclopenta[a]phenanthren-17-yl)ethoxy)-4-oxobutanamido)ethyl)-N-hexadecyl-N-methylhexadecan-1-aminium chloride], for which the IC50 in the data set with T47D was > 15 µM; in the data set with MCF7, > 15 µM; with OVCAR-3, > 15 µM; in the data set on B16F10, > 15 µM; with MDA-MB-231 it was > 15 µM; in the data set on NIH-3T3 it was > 20 µM. Also, the values for the concentration for half-maximal inhibition (IC50) in the data set on CHO and in the data set on COS-1 were > 15 µM and > 20 µM, respectively.
`CCCCCCCCCCCCCCCCCC[N+](C)(CCCCCCCCCCCCCCCCCC)CCNC(=O)CCC(=O)O[C@@H](C)[C@H]1CCC2C3CCC4=CC(=O)CC[C@]4(C)C3CC[C@@]21C` (stereo partly drawn) [Compound 6g, N-(2-(4-((1S)-1-((10R,13S,17S)-10,13-dimethyl-3-oxo-2,3,6,7,8,9,10,11,12,13,14,15,16,17-tetradecahydro-1H-cyclopenta[a]phenanthren-17-yl)ethoxy)-4-oxobutanamido)ethyl)-N-methyl-N-octadecyloctadecan-1-aminium chloride]: the IC50 is > 15 µM in the data set with T47D; > 15 µM with MCF7; > 15 µM in the data set with OVCAR-3; > 15 µM with B16F10; > 15 µM in the data set with MDA-MB-231; > 20 µM in the data set with NIH-3T3. Further, the figures for the IC50 in the data set with CHO and with COS-1 were > 15 µM and > 20 µM, respectively.
